Measurements: PubChem BioAssay (NCI)
Several values for one entry are separate records, joined by “and”; a condition that tells them apart may be missing. Identical values can stand only once.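 Test compounds were applied to cells in 96-well plates for 48 hours at 5 doses. GI50 marks 50% less growth. At the TGI there is no net growth.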

How the values were obtained:
Assay in all cases: inhibition of tumour cell growth, NCI panel, 48 h
SN12C renal = system: SN12C renal
NCI/ADR-RES ovarian = system: NCI/ADR-RES ovarian
T-47D breast = system: T-47D breast
MDA-N = system: MDA-N
BT-549 breast = system: BT-549 breast
MDA-MB-231 breast = system: MDA-MB-231 breast
SK-MEL-2 melanoma = system: SK-MEL-2 melanoma
CCRF-CEM leukemia = system: CCRF-CEM leukemia
HS 578T breast = system: HS 578T breast
PC-3 prostate = system: PC-3 prostate

Row | Structure (SMILES) | TGI (SN12C renal) [µM] | TGI (NCI/ADR-RES ovarian) [µM] | TGI (T-47D breast) [µM] | TGI (MDA-N) [µM] | TGI (BT-549 breast) [µM] | TGI (MDA-MB-231 breast) | TGI (SK-MEL-2 melanoma) | TGI (CCRF-CEM leukemia) [µM] | TGI (HS 578T breast) [µM] | TGI (PC-3 prostate) [µM] | GI50 (SK-MEL-2 melanoma) | GI50 (SN12C renal) [µM] | GI50 (NCI/ADR-RES ovarian) [µM] | GI50 (MDA-N) [µM] | GI50 (PC-3 prostate) [µM] | GI50 (MDA-MB-231 breast) [µM]
1 | Cc1cnc(Cl)nc1C(C#N)c1nc2ccccc2n1C (centres undefined) | > 100 | > 100 | > 100 | > 100 | > 100 | > 100 µM |  |  |  |  |  |  |  |  |  | 
2 | N#Cc1c(=O)c2cccnc2n2c1[nH]c1ccccc12 | > 100 | > 100 | > 100 | > 100 | > 100 | > 100 µM | > 100 µM | > 100 | 69.9 | > 100 |  |  |  |  |  | 
3 | OC(CC(c1ccccc1)c1ccc(Cl)cc1)c1ccc(Cl)cc1 (centres undefined) | > 100 | 95.2 | 88.4 | > 100 | > 100 |  | 49.8 µM | > 100 | > 100 | > 100 |  |  |  |  |  | 
4 | Cc1ccc2ccccc2c1CC1S(=O)(=O)OCCOS1(=O)=O | 23.7 | 72.4 |  | 22.2 | 25.7 | 29.1 µM | 37.9 µM | 27.1 |  | 24.3 |  |  |  |  |  | 
5 | O=c1[nH]c(=O)n(C2CC(O)C(CO)O2)cc1C#Cc1ccc(C(F)(F)F)cc1 (centres undefined) | > 100 |  |  |  |  |  | > 100 µM | > 100 |  |  |  |  |  |  |  | 
6 | COc1cc2c3c(n(CCCNCCO)c(=O)c2cc1OC)-c1cc2c(cc1C3=O)OCO2 | 1.19 | > 100 | 1.52 |  | 7.97 | 2.03 µM and 5.18 µM | 5.84 µM and 23.7 µM |  | 27.3 |  | 2.55 µM and 10.9 µM | < 0.0119 | 0.295 | 2.3 | 10.2 | 1.09
7 | O=C(Cn1c2ccc(Br)cc2c2nc3ccccc3nc21)NC1CCCCC1 | > 100 | > 100 | > 100 | > 100 | > 100 | > 100 µM | > 100 µM |  | > 100 | > 100 |  |  |  |  |  | 
8 | Cc1ccc(S(=O)(=O)C(C#N)c2nc3ccccc3nc2-n2cccn2)cc1 (centres undefined) | > 100 |  |  |  |  |  | > 100 µM | > 100 |  |  |  |  |  |  |  | 
9 | O=C1CCSSCCC(=O)Nc2ccccc2N1 | > 100 | > 100 | > 100 |  | > 100 | > 100 µM | > 100 µM | > 100 | > 100 | > 100 |  |  |  |  |  | 
10 | COc1ccc(/C=N/Nc2[nH]c(=S)nc3[nH]ncc23)cc1 | > 100 | > 100 | 44.2 |  | > 100 | > 100 µM | > 100 µM | > 100 | > 100 | > 100 |  |  |  |  |  | 
11 | CC(=O)N[C@@H](Cc1ccc(O)cn1)C(=O)NCc1ccc2c(c1)OCO2 | > 100 | > 100 | > 100 | > 100 | > 100 |  | > 100 µM | > 100 | > 100 | > 100 |  |  |  |  |  | 
12 | Brc1ccc2c(c1)C1(c3cc(Br)ccc3-2)c2cc(Br)ccc2-c2ccc(Br)cc21 | > 100 |  |  |  |  |  | > 100 µM | > 100 |  |  |  |  |  |  |  | 
13 | C=CCc1c(O)c2ccccc2[nH]c1=O | > 100 | > 100 |  | > 100 | > 100 | > 100 µM |  | > 100 | > 100 | > 100 |  |  |  |  |  | 
14 | NC1=NS(=O)(=O)N=C(N)C1=Cc1ccc([N+](=O)[O-])o1 | 30.1 |  |  |  |  |  | 30.9 µM | 92.8 |  |  |  |  |  |  |  | 
15 | C#CC(C)(C)Oc1cc(OC)c2c(=O)c3ccccc3n(C)c2c1 | 49.9 | 83.4 | 27.9 | 31.1 |  | 56.1 µM | 35.7 µM | 27.5 | 60.6 | 40.8 |  |  |  |  |  | 
16 | O=C1c2cc([N+](=O)[O-])ccc2NC2C(O)c3ccccc3N12 (centres undefined) | > 100 | 63.1 | 49.6 | > 100 | 61.4 | > 100 µM | > 100 µM |  | 74.3 | > 100 |  |  |  |  |  | 
17 | O=C1c2cc3c(cc2CC12Cc1cc4c(cc1C2)CCC4)CCC3 | > 100 | > 100 | > 100 | > 100 |  | > 100 µM | > 100 µM | > 100 | > 100 | > 100 |  |  |  |  |  | 
18 | CCCCCCCCCCCCCCCCOCC(CC(F)(F)P(=O)(O)O)OC(C)=O (centres undefined) | > 50 | > 50 |  | > 50 | > 50 | > 50 µM | > 50 µM |  |  | > 50 |  |  |  |  |  | 
19 | CC1=NN(c2nc(N)nc(/C(C#N)=C/c3ccncc3)n2)C(C)(C)C1 |  | > 100 | > 100 |  | > 100 | > 100 µM | > 100 µM | > 100 | > 100 | > 100 |  |  |  |  |  | 
20 | Cc1nc2c(n1Cc1ccc(Cl)cc1)C(=O)c1ccccc1C2=O | > 75 |  |  |  |  |  | > 75 µM | > 75 |  |  |  |  |  |  |  | 
21 | COc1cc(C2SCC(=O)N2NC(=O)c2ccc(NC(C)=O)cc2)cc(OC)c1OC (centres undefined) | > 100 | > 100 | > 100 |  | > 100 | > 100 µM | > 100 µM |  | > 100 |  |  |  |  |  |  | 
22 | Oc1ccc(-c2c3c(nc4c2CCc2ccc(Br)cc2-4)-c2cc(Br)ccc2CC3)cc1 | 43.6 | 46 | 42.6 | 40.7 | 43.1 | 34.5 µM | 35 µM |  |  | 31.9 |  |  |  |  |  | 
23 | CCOC(=O)C1C/C(C)=C(/C)SCCCS1 (centres undefined) | > 100 | > 100 | > 100 | > 100 |  | > 100 µM | > 100 µM |  | > 100 | > 100 |  |  |  |  |  | 
24 | CC1(C)CC(=O)C(/C=N/c2nc(-c3ccc(Br)cc3)cs2)=C(O)C1 | > 100 | > 100 | > 100 | > 100 | 37.8 | > 100 µM | 48.4 µM |  |  | > 100 |  |  |  |  |  | 
25 | O=C1CSC2(CC(/C=C/C=C/c3ccccc3)=NN2c2cccc(S(=O)(=O)O)c2)N1c1nc2ccccc2s1 (centres undefined) | > 100 | > 100 | > 100 | > 100 | > 100 | > 100 µM | > 100 µM | 58.4 |  | > 100 |  |  |  |  |  | 
26 | Cc1cs/c(=N\C(P(=O)(O)O)P(=O)(O)O)n1C |  | > 100 |  | > 100 | > 100 | > 100 µM |  | > 100 | 47.8 | > 100 |  |  |  |  |  | 
27 | CC(C)(CN1CCCCC1)C(=O)CC(SCCS(=O)(=O)O)c1ccc(Br)cc1 (centres undefined) | 2.97 |  |  |  |  |  | 4.37 µM |  |  |  |  |  |  |  |  | 
28 | O=C(c1cccs1)N(C(=S)N1CCN(c2ccccc2)CC1)c1ccccc1 | > 100 |  |  |  |  |  | > 100 µM | > 100 |  |  |  |  |  |  |  | 
